Experimental data: patent US4588731A, “Derivatives of isoxazolo[4,5-c]quinoline(2H)-3-one and method of preparation and use as anxiolytic agents” (Roussel Uclaf, priority 1985, dated 1986)

Legend:
benzodiazepine receptors = test: Affinity for benzodiazepine receptors (3H diazepam displacement, rat brain cortex membranes); assay type: binding, rats; settings: 3H diazepam 10^-9 M, 30 minutes at 0° C, read-out: C.I. 50 (concentration inhibiting 50% of the specific bond of 3H diazepam)
Description: A. Affinity for benzodiazepine receptors
The technique was inspired by that of Mohler et al [Science, Vol. 198 p. 849-851 (1977] in which the cortex from the brains of male rats weighing on average 150 g were homogenized to a twentieth (weight/volume) in 0.32M sucrose. After centrifuging the homogenate at 1000 g for 10 minutes at 0° C., the supernatant was centrifuged at 30,000 g for 20 minutes at 4° C. The residue was suspended in 20 volumes of Tris buffer HCl 50 mM pH 7.4 and centrifuged at 30,000 g for 20 minutes at 4° C. The new residue obtained was placed in 50 ml of Krebs Tris buffer HCl pH 7.4
2 ml of the suspension in the presence of ^3 H diazepam at a concentration of 10^-9 M were then incubated for 30 minutes at 0° C: (i) alone, (ii) with increasing concentrations of the product to be tested or, (iii) to determine the non-specific fixation, with non-radioactive diazepam at a concentration of 10^-6 M. The incubated suspension were filtered on Whatman GF/C and the filters were washed twice with 5 ml of Krebs Tris buffer HCl pH 7.4 at 0° C. The radioactivity of the filters was measured by liquid scintillation and the activity of the product was expressed in C.I.50, the concentration inhibiting 50% of the specific bond of ^3 H diazepam.

mice = test: Acute toxicity, oral route in mice (LD0); assay type: in vivo
Description: The lethal doses LD0 of the different compounds tested after administration by oral route in mice were evaluated. The maximum dose not provoking any mortality in 8 days was called LD0 and the results obtained are in Table II.

[1] = test system: level of serous corticosterone; test: Activity on serous level of corticosterone after stress from noise; assay type: in vivo; settings: Rattus norvegicus, 1 h; rats, oral, stress from noise (90 decibels) one hour after dosing; read-out: DE50 (dose which reduced the increase in the level of serous corticosterone by 50%)
Description: C. Activity on serous level of corticosterone after stress from noise.
Groups of 5 rats were formed the day before the test and placed in a quiet room. The compounds were administered orally the following day between 8 and 9 o'clock in the morning. One hour afterwards, stress was applied which consisted of taking the animals from the cage and placing them in a room where a radio was playing loudly (90 decibels), then half an hour later, giving them an intraperitoneal puncture without injection. Ten minutes after this, the rats were anesthetized with halothane and samples of blood were taken by decapitation. The levels of serous corticosterone were then determined.
The results are expressed in DE50, that is to say in a dose of the compound tested which reduced the increase in the level of serous corticosterone by 50% in animals treated in comparison with the control animals. The results were DE50 in mg/kg of <50 and <100 for the compounds of Examples 2 and 4, respectively. Stress was less noticeable in the treated animals and those animals had therefore a degree of anxiety less than that of the control animals.

Row | Compound | IC50 (benzodiazepine receptors) | LD0 (maximum dose not provoking any mortality in 8 days) (mice) | ED50 [1]
1 | O=c1c2cnc3ccccc3c2on1-c1ccccc1 [Example 1, 2-phenylisoxazolo(4,5-c)quinolin-3-(2H)-one] | 120 nM | ≥ 400 mg/kg | –
2 | O=c1c2cnc3ccc(F)cc3c2on1-c1ccccc1 [Example 2, 8-fluoro-2-phenylisoxazolo(4,5-c)quinolin-3-(2H)-one] | 400 nM | ≥ 400 mg/kg | < 50 mg/kg
3 | COc1ccc2c(c1)ncc1c(=O)n(-c3ccccc3)oc12 [Example 3, 7-methoxy-2-phenylisoxazolo(4,5-c)quinolin-3-(2H)-one] | – | ≥ 200 mg/kg | –
4 | COc1ccc2ncc3c(=O)n(-c4ccccc4)oc3c2c1 [Example 4, 8-methoxy-2-phenylisoxazolo(4,5-c)quinolin-3-(2H)-one] | 2460 nM | 200 mg/kg | < 100 mg/kg
5 | O=c1c2cnc3ccc(C(F)(F)F)cc3c2on1-c1ccccc1 [Example 5, 8-trifluoromethyl-2-phenylisoxazolo(4,5-c)quinolin-3-(2H)-one] | – | ≥ 200 mg/kg | –
6 | O=c1c2cnc3ccc(Cl)cc3c2on1-c1ccccc1 [Example 7, 8-chloro-2-phenylisoxazolo(4,5-c)quinolin-3-(2H)-one] | – | ≥ 100 mg/kg | –
